Results taken from patent US11202789B2, “Method of treating glycogen storage disease” (Viking Therapeutics, Inc., priority 2016, dated 2021).
Entries after “also recorded” stand apart in the source; their conditions may differ.

Columns and labels:
[1] = system: male Zucker Diabetic fatty (ZDF) rats; assay: 4-week (28 days) efficacy and safety study in male Zucker Diabetic fatty (ZDF) rats; type: in vivo
Procedure: Objectives: The objective of the study was to evaluate the efficacy and safety of Compound 2 treatment for 4 weeks in male Zucker Diabetic fatty (ZDF) rats. Total plasma cholesterol, blood glucose levels, liver and muscle glycogen levels, and a plasma clinical chemistry were evaluated. Additionally, histological and biochemical assessments of hepatic steatosis were performed post-mortem. MB07875, a known human thyroid hormone receptor ligand, was included as a comparator in these studies.
Methods: Eight-week old male ZDF rats (n=5/group) were treated orally with Compound 2 or MB07875 for 28 days. The doses of Compound 2 [in 0.5% carboxymethylcellulose (CMC)] were 0.25, 0.5, 1, 2.5, 5, 15 and 50 mg/kg/day. The dose of MB07875 (in 0.5% CMC) was 0.2 mg/kg/day. Body weight was assessed just prior to treatment and at 24 hours following the last dose. Total plasma cholesterol and blood glucose were measured on a weekly basis. […] In addition, the liver was removed and weighed, and a portion freeze-clamped for glycogen and triglyceride analysis. Another portion was placed in 10% neutral buffered formalin for hematoxalin and eosin (H & E) staining. Finally, the heart was excised and weighed.

beagle dogs = assay: Compound 2 dosing study in dogs: plasma cholesterol; type: in vivo; conditions: for average reduction of total plasma cholesterol levels: Day 15, from baseline
Procedure: Compound 2 Dosing Study in Dogs: The objective of the study was to determine the effects of oral administration of Compound 2 once-daily for 14 days followed by alternate day dosing for 14 days on plasma cholesterol levels and indicators of thyroid function in beagle dogs. Compound 2 was formulated with Lutrol F68 NF (Poloxomer 188) and carboxymethylcellulose (CMC; sodium salt/high viscosity) and was administered as a suspension in 0.5% CMC/1% Lutrol in deionized water. […] At the end of the treatment cycle (Cycle 1), the dogs were washed out for 4 weeks and then entered into a second 14-day treatment cycle. Cycle 2 employed the same dosing paradigm as Cycle 1, but animals were randomized to Cycle 2 in such a way that the combined dosing groups from the two cycles consisted of 4 different animals (2 males, 2 females) each. At the conclusion of Cycle 2, dosing was continued on alternate days for an additional 14-day period (Cycle 2 Extension). Blood samples were collected at baseline and appropriate time intervals thereafter and analyzed for total plasma cholesterol levels, serum levels of total T4 (tT4), free T4 (fT4), total T3 (tT3), free T3 (fT3), and thyroid stimulating hormone (TSH).

[2] = Compound 2 0.25-50 mg/kg/day oral, 28 days

Cc1cc(OCP2(=O)OCCC(c3cccc(Cl)c3)O2)cc(C)c1Cc1ccc(O)c(C(C)C)c1 (centres unmarked) [Compound 2]
reduction of total plasma cholesterol ([1]; 1 mg/kg/day oral, day 28, vs vehicle): ~25%
total bilirubin increased ([1]; 2.5 mg/kg/day oral, day 28): ~86%
blood glucose levels decreased ([1]; 2.5 mg/kg/day oral, day 28, vs vehicle): ~47%
albumin-to-globulin ratio increased ([1]; 15 mg/kg/day oral, day 28): 21%
blood urea nitrogen decreased ([1]; 15 mg/kg/day oral, day 28): ~21%
liver glycogen levels reduced ([1]; 50 mg/kg/day oral, 28 days, dose-dependent): > 90%
albumin-to-globulin ratio increased ([1]; 50 mg/kg/day oral, day 28): 32%
alkaline phosphatase decrease ([1]; 50 mg/kg/day oral, day 28): ~42%
blood urea nitrogen decreased ([1]; 50 mg/kg/day oral, day 28): ~26%
calcium levels decreased ([1]; 50 mg/kg/day oral, day 28): ~5%
phosphorus levels increased ([1]; 50 mg/kg/day oral, day 28): ~27%
total bilirubin increased ([1]; 50 mg/kg/day oral, day 28): ~79%
total protein levels decreased ([1]; 50 mg/kg/day oral, day 28): ~10%
reduction of total plasma cholesterol ([1]; 50 mg/kg/day oral, day 28, vs vehicle): ~34%
effect on body weight [1, 2]: no significant effect
effect on heart weight [1, 2]: no significant effect
liver triglyceride content [1, 2]: no statistically significant decrease
muscle glycogen levels ([1]; Compound 2 0.25-50 mg/kg/day oral, 28 days, vs vehicle): unaffected; also recorded: no significant differences
blood glucose levels ([1]; Compound 2-treated groups (0.25-50 mg/kg/day), any time during the study): not increased
globulin decreased ([1]; doses of 5 mg/kg/day and above, oral, day 28): ≤ 25%
microvesicular steatosis, histological analysis of liver sections ([1]; doses ≥2.5 mg/kg/day oral, 28 days): decrease
decrease in liver glycogen levels relative to vehicle ([1]; highest dose evaluated (50 mg/kd/day), after 28 days of dosing): ~90%
cardiovascular function (heart rate, systolic and diastolic aortic pressure, LV dP/dt) ([1]; up to 50 mg/kg/day oral, 28 days): did not alter
effects on total plasma cholesterol levels (beagle dogs; 0.1 mg/kg/day oral once-daily): minimal effects
average reduction of total plasma cholesterol levels from baseline (beagle dogs; Day 15, 0.3 mg/kg/day oral once-daily for 14 days): ~22%
average reduction of total plasma cholesterol levels from baseline (beagle dogs; Day 15, 10 mg/kg/day oral once-daily for 14 days): ~47%
average reduction of total plasma cholesterol levels (beagle dogs; 0.3 mg/kg/day oral once-daily for 14 days): ~28 mg/dL
average reduction of total plasma cholesterol levels (beagle dogs; 10 mg/kg/day oral once-daily for 14 days): ~71 mg/dL
total plasma cholesterol levels relative to vehicle-treated animals (beagle dogs; alternate day dosing for 14 days (Cycle 2 Extension)): remained reduced relative to vehicle-treated animals to a similar or greater extent than observed after once-daily dosing
